# Measurements taken from ChEMBL document CHEMBL1671774, “An efficient synthesis of the precursor of AI-2, the signalling molecule for inter-species quorum sensing” (Bioorg Med Chem, 2011).
# Activity calls are given as the source filed them. The calls are words filed in the database; no cut-off is given here.
# Key:
# Escherichia coli [1] = assay: Ratio of compound activity over DPD activity for induction of LsrB-dependent quorum sensing in Escherichia coli KX1446
# Escherichia coli [2] = assay: Induction of LsrB-dependent quorum sensing in Escherichia coli KX1446 assessed as expression of Lsr system at 40 uM by beta-galactosidase reporter assay
# [3] = target: Autoinducer 2-binding periplasmic protein LuxP (Vibrio harveyi) (UniProt P54300); assay: Binding affinity to LuxP in Vibrio harveyi MM32 by FRET method
# [4] = target: Autoinducer 2-binding periplasmic protein LuxP (Vibrio harveyi) (UniProt P54300); assay: Induction of LuxP-dependent quorum sensing in Vibrio harveyi MM32 assessed as induction of bioluminescence intensity after 4 hrs
# Autoinducer 2-binding periplasmic protein LuxP (Vibrio harveyi), sequence (P54300 whole entry): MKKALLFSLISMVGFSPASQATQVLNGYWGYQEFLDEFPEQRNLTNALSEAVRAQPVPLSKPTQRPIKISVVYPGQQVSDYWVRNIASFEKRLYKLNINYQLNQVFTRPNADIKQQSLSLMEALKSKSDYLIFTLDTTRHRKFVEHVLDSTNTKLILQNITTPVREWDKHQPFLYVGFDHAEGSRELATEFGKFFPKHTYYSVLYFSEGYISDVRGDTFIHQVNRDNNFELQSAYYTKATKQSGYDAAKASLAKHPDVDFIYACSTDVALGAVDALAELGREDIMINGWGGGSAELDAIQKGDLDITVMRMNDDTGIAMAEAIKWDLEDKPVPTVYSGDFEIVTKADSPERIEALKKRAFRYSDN
Ratio (Escherichia coli [1]),Activity (Escherichia coli [2]),Activity [3],Activity [4],Structure (SMILES)
6,Active,–,–,C[C@@]1(O)OC[C@H](O)C1(O)O
–,inactive,Active,Active,CC(=O)C(=O)[C@@H](O)CO
–,–,–,Active,C[C@]12OC[C@H](O)[C@@]1(O)O[B-](O)(O)O2
